In publication PMC6836034, “The Effect of Silymarin Flavonolignans and Their Sulfated Conjugates on Platelet Aggregation and Blood Vessels Ex Vivo” (Nutrients, 2019):

Target: T1, COX-1 (cyclooxygenase-1) (Ovis aries, UniProt P05979)
T1 construct: gene PTGS1
T1 sequence (P05979 25-600): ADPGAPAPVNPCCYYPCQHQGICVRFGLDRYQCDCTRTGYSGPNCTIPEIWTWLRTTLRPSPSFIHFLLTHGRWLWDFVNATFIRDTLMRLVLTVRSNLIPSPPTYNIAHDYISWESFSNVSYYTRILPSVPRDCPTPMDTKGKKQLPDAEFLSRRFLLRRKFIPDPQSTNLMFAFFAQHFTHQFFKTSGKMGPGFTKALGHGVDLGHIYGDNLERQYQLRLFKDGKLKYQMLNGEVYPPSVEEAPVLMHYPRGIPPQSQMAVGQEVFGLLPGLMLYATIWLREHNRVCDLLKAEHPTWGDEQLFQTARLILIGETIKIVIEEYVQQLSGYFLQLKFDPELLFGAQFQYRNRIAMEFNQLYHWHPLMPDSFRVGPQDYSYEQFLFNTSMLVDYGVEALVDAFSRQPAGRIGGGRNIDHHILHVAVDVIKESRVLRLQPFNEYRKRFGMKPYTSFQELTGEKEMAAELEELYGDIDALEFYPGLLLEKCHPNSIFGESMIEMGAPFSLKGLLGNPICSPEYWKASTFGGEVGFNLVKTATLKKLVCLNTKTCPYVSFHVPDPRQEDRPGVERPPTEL
Test: biochemical

- IC50: 25.2 ± 10.4 µM
SMILES: COc1cc(C2Oc3cc(-c4oc5cc(O)cc(O)c5c(=O)c4O)ccc3OC2CO)ccc1O (racemic) [2,3-dehydrosilybin]
